Values of other authors in US20110008495A1, “LIQUID DIETARY SUPPLEMENT COMPOSITION” (NAWGAN PRODUCTS, LLC, priority 2009, published 2011).

What was measured:
diabetic animals = details: long-term consumption in distilled water
[1] = system: individuals diagnosed with mild to moderate Alzheimer's disease
[2] = midlife caffeine consumption

CC(C)=CCC/C(C)=C/C=C/C(C)=C/C=C/C(C)=C/C=C/C=C(C)/C=C/C=C(C)/C=C/C=C(\C)CCC=C(C)C [lycopene]
markers of inflammation and oxidation (diabetic animals): significantly decreased | memory performance (diabetic animals): significantly improved

C[N+](C)(C)CCOP(=O)([O-])OC[C@H](O)CO [A-GPC, α-glyceryl phosphoryl choline]
absolute magnitude of change in overall cognitive ability (Mini Mental State Exam) ([1]; A-GPC over a 6 month period): offset a full year of typical decline | verbal memory and overall cognitive ability ([1]; A-GPC over a 6 month period vs patients not given A-GPC, 126 individuals): significant improvements

Cn1c(=O)c2c(ncn2C)n(C)c1=O [caffeine]
risk of dementia later in life [2]: significantly reduces
